Experiments:
[1] = target: T1, FAK [pY397] in MDA-MB-453 cells (Homo sapiens, UniProt Q05397); assay: FAK [pY397] ELISA in MDA-MB-453 cells; type: cell-based; conditions: MDA-MB-453, 1 h treatment, mean ± SEM (n = 3); read-out: IC50 FAK phosphorylation (pY397 ELISA)
T1 construct: endogenous in cells; host or cells: MDA-MB-453
Protocol: (§1) TNBC cells were seeded into 60 mm dishes at a density of 1 × 10^6 cells/dish in 5 mL of culture media. After 24 h, cells were treated with concentrations ranging from 1 nM to 10 μM of SJP1602 for 1 h, and cell lysates were prepared to detect phospho-FAK levels. The FAK [pY397] enzyme-linked immunosorbent assay was performed according to the manufacturer’s instructions. The absorbance at 450 nm was measured to quantify the results.

MDA-MB-231 cells [2] = assay: Colony formation assay; type: cell-based, human; conditions: 1 μM or 2 μM, 11 days
Protocol: MDA-MB-231 cells were seeded at 2.5 × 10^2 cells/well in 12-well plates. FAK inhibitors (SJP1602, VS-6063, GSK2256098) were added 24 h post seeding without changing the media. After 7 days, the cells were replaced with fresh media containing 10% FBS and the same initial concentration of the FAK inhibitor. After 11 days, the cells were fixed with 4% PFA for 10 m at room temperature and stained with 0.5% crystal violet dissolved in 25% methanol for 20 min at room temperature. The cells were then washed with distilled water, dried, and images of the entire plate were obtained.

[3] = Pharmacokinetics in SD rats; type: in vivo, rat
Protocol: The pharmacokinetics (PK) study was conducted in male SD rats. Three rats received a single-dose intravenous injection of SJP1602 at 5 mg/kg, and another set of three rats received a single-dose oral administration of SJP1602 at 20 mg/kg. The vehicle composition used was DMA 3% and Cremophor ELP 4%. Blood drug concentrations over time were determined by drawing blood after 0.17, 0.5, 1, 2, 4, 6, and 24 h. Plasma was isolated using K3EDTA anticoagulation tubes, and the drug concentration in the plasma was analyzed by LC/MS/MS (Waters, MA, USA). To analyze the concentration of pretreated rat plasma samples, a Waters Acquity ultra-performance liquid chromatography system (UPLC, Waters) was employed, in tandem with a C18 column (Acquity UPLC® BEH C18 1.7 μm, 2.1 × 50 mm). The mass spectrometry analysis was conducted using the Waters Xevo-TQ-S micro. For the mobile phases, phase A consisted of distilled water with 0.1% formic acid, while phase B comprised methanol, also with 0.1% formic acid. PK parameters were subsequently derived using WinNonlin software (version 2.1), which enabled the determination of AUC (ng×h/mL), Cmax (ng/mL), and bioavailability (BA). The area under the drug concentration curve (AUC) was calculated utilizing the trapezoidal rule, focusing on the time interval AUC0–24h.

[4] = Cytotoxicity on normal cell line Fa2N4; type: cell-based; conditions: human, Fa2N4 cells (normal cell line); read-out: Cytotoxicity on Normal Cell Lines IC50
MDA-MB-231 cells [5] = assay: Transwell cell migration assay; type: cell-based, human; conditions: 5 µM, 16 h
Protocol: Cell migration capacity was analyzed using the transwell migration assay. The 24-well chambers (8 μm pore size) were obtained from Corning (Corning, NY, USA). Cells treated with vehicle or FAK inhibitors (SJP1602, VS-6063, GSK2256098) at a concentration of 5 μM were resuspended in serum-free media and 5 × 10^4 cells were added to the upper compartment of the transwell chambers. Fresh culture medium with 5% FBS was added to the lower compartment. After 16 h, cells on the upper side of the filter were removed using cotton swabs. The underside of the filter was fixed in 100% methanol, washed in PBS, and stained using crystal violet. Migrated cells were analyzed using a microscope (Nikon, TE2000). Image analysis was performed using the color analysis function in Adobe Photoshop 2021 (Version 22.4.2, Adobe (San Jose, CA, USA)). Quantitative data were obtained from color measurement records in Adobe Photoshop 2021.

[6] = Cytotoxicity on normal cell line FDF; type: cell-based; conditions: FDF cells (normal cell line); read-out: Cytotoxicity on Normal Cell Lines IC50
FAK = target: T2, FAK (Homo sapiens, UniProt Q05397); assay: ADP-Glo kinase assay FAK; type: biochemical; conditions: mean ± SEM (n = 3)
T2 construct: purchased Promega V1971
Protocol: The kinase assays were performed and quantified according to the manufacturer’s instructions using the ADP-Glo™ Kinase Assay Kit for FAK (Promega, V1971), PYK2 (Promega, V4083) and InsR (Promega, V3901). Each kinase reaction mixture was prepared to contain the compounds of interest. After thorough pipetting, 25 μL of the mixture was added to each well and incubated for 1 h at room temperature. Subsequently, 25 μL of ADP-Glo reagent was added, followed by a 40 m incubation at room temperature. Next, 50 μL of the kinase detection reagent was added, and the mixture was incubated for an additional 30 m at room temperature. Luminescence was measured using the Tecan Spark 10M (Integration time: 1 s) (Männedorf, Switzerland).

[7] = Cytotoxicity on normal cell line CCD-18Co; type: cell-based; conditions: human, CCD-18Co cells (normal cell line); read-out: Cytotoxicity on Normal Cell Lines IC50
[8] = target: T3, FAK [pY397] in HCC70 cells (Homo sapiens, UniProt Q05397); assay: FAK [pY397] ELISA in HCC70 cells; type: cell-based; conditions: HCC70, 1 h treatment, mean ± SEM (n = 3); read-out: IC50 FAK phosphorylation (pY397 ELISA)
T3 construct: endogenous in cells; host or cells: HCC70
Protocol: as §1

[9] = target: T4, FAK [pY397] in MDA-MB-231 cells (Homo sapiens, UniProt Q05397); assay: FAK [pY397] ELISA in MDA-MB-231 cells; type: cell-based; conditions: MDA-MB-231, 1 h treatment, mean ± SEM (n = 3); read-out: IC50 FAK phosphorylation (pY397 ELISA)
T4 construct: endogenous in cells; host or cells: MDA-MB-231
Protocol: as §1

[10] = Cytotoxicity on normal cell line WI38; type: cell-based; conditions: human, WI38 cells (normal cell line); read-out: Cytotoxicity on Normal Cell Lines IC50
[11] = male, SD, rat, plasma, po, 20 mg/kg, po 20 mg/kg, male SD rats
[12] = rat, plasma, iv 5 mg/kg, male SD rats
[13] = rat, plasma, po 20 mg/kg, male SD rats

T1 sequence (Q05397 whole entry): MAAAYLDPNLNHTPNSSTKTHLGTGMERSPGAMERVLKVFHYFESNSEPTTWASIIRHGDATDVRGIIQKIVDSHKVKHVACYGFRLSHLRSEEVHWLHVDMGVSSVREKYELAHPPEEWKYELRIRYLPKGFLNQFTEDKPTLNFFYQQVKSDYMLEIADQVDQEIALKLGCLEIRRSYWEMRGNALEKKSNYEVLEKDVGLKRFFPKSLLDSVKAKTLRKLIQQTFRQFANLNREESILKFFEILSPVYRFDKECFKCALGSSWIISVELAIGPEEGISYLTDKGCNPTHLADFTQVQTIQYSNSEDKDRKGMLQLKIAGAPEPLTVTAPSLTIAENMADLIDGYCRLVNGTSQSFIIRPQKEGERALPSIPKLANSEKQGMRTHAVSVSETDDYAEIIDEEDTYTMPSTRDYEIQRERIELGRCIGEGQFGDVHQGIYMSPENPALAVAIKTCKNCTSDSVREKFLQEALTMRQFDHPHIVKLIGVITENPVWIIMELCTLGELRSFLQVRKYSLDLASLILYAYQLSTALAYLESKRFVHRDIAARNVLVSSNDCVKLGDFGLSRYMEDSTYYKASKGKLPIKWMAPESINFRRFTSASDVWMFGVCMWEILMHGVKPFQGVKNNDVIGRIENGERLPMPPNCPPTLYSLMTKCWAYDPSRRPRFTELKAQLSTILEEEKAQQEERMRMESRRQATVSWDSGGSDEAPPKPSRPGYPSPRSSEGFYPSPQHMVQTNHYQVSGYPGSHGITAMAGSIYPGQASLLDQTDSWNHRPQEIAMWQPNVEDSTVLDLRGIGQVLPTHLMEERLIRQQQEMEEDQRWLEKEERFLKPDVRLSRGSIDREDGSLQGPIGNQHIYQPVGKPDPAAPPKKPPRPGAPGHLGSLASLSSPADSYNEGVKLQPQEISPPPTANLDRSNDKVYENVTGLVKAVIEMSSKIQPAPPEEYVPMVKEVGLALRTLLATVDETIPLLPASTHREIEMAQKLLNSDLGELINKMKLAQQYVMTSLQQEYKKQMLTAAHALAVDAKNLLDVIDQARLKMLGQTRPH
T3 sequence (Q05397 whole entry): as above
T4 sequence (Q05397 whole entry): as above
T2 sequence (Q05397 whole entry): as above

Q: For `CNC(=O)c1cccc(C)c1Nc1nc(Nc2ccc(N3CCN(C4C5CC6CC4CC(O)(C6)C5)CC3)cc2OC)ncc1C(F)(F)F` (centres unmarked) [SJP1602, 2-((2-((4-(4-((2s,5r)-5-hydroxyadamantan-2-yl)piperazin-1-yl)-2-methoxyphenyl)amino)-5-(trifluoromethyl)pyrimidin-4-yl)amino)-N,3-dimethylbenzamide], which IC50 [1] is on record?
A: 43 ± 16 nM

Q: And the “formation of MDA-MB-231 colonies” value (MDA-MB-231 cells [2])?
A: dose-dependent decrease

Q: And the half-life ([3]; male, SD, rat, plasma, iv, 5 mg/kg, iv 5 mg/kg, male SD rats)?
A: 0.93 ± 0.25 h

Q: What about the bioavailability [3, 11] of the same compound?
A: 45%

Q: What about the half-life [3, 11] of the same compound?
A: 2.2 h

Q: And the AUC ([3]; male, SD, rat, plasma, single oral dose 20 mg/kg, rats, read-out: area under the curve (AUC))?
A: 22 µM·h

Q: And the T1/2 ([3]; po 20 mg/kg, male SD rats, 20 mg/kg)?
A: 2.24 ± 0.19 h

Q: And the AUC(0-t) [3, 12]?
A: 7070 ng·h/mL

Q: What about the Cmax [3, 12] of the same compound?
A: 3890 ng/mL

Q: And the Tmax [3, 12]?
A: 0.28 h

Q: And the AUC(0-t) [3, 13]?
A: 14700 ng·h/mL

Q: And the Cmax [3, 13]?
A: 3270 ng/mL

Q: And the Tmax [3, 13]?
A: 1 h

Q: And the peak concentration ([3]; single oral dose 20 mg/kg, rats)?
A: 4.9 µmol/L

Q: And the IC50 [4]?
A: 9620 nM

Q: What about the “serum-stimulated migration of MDA-MB-231 cells” value (MDA-MB-231 cells [5]) of the same compound?
A: considerably reduced

Q: What about the IC50 [6] of the same compound?
A: > 10000 nM

Q: What about the IC50 (FAK) of the same compound?
A: 3.7 ± 0.007 nM

Q: And the IC50 [7]?
A: > 10000 nM

Q: And the IC50 [8]?
A: 83 ± 17 nM

Q: What about the IC50 [9] of the same compound?
A: 20 ± 7 nM

Q: And the IC50 [10]?
A: 7280 nM

Q: With `CONC(=O)c1ccccc1Nc1cc(Nc2cc(C)nn2C(C)C)ncc1Cl` [GSK2256098] as the compound, how does the “serum-stimulated migration of MDA-MB-231 cells” value (MDA-MB-231 cells [5]) read?
A: did not affect
